Experimental data published in US20160213007A1, “Methods and Compositions to Elicit Resistance to Fungal Disease in Plants and Plant Parts” (ECOFLORA AGRO S.A.S., priority 2013, published 2016).

Test system: Botrytis cinerea
Assay: Growth inhibition of Botrytis cinerea by acetophenones

O=C(CO)c1ccccc1 [2-hydroxy acetophenone]
inhibition of the growth of the fungus Botrytis cinerea: can inhibit the growth
